Measurements taken from patent US12203089B2, “Plants having increased tolerance to herbicides” (BASF SE, priority 2015, dated 2025).

How the values were obtained:
Format in all cases: in vivo
[1] = tested on: Brassica napus expressing BnaAnng01240D (SEQ ID 20) variant S1038F; experiment: 6-well plate injury test, T1 seeds on vermiculite; settings: 7 days after treatment
Method: (§1) Transgenic Brassica napus plants are assayed for improved tolerance to azine herbicides like e. g. 6-cyclopentyl-N4-(2,3,4,5,6-pentafluorophenyl)-1,3,5-triazine-2,4-diamine in 6-well plates. Therefore, 5-6 T1 seeds are sown on vermiculite and watered with half-strength murashige skoog nutrient solution, pH 5.8 (Murashige and Skoog (1962) Physiologia Plantarum 15: 473-497). Compounds are dissolved in dimethylsulfoxid (DMSO) and added to the medium (final DMSO concentration 0.1%). Multi well plates are incubated in a growth chamber at 22° C., 75% relative humidity and 110 μmol Phot*m^−2*s^−1 with 14: 10 h light: dark photoperiod. Growth inhibition is evaluated seven to ten days after seeding in comparison to wild type plants. Plant injury is rated on a scale of 0% to 100%, 0% being no injury and 100% being complete death.

[2] = tested on: Brassica napus expressing BnaAnng01240D (SEQ ID 20) variant S1041L; experiment: 6-well plate injury test, T1 seeds on vermiculite; settings: 7 days after treatment
Method: as §1

[3] = tested on: Brassica napus expressing BnaA01g04600D (SEQ ID 21) variant G1012R; experiment: Greenhouse herbicide tolerance, post emergent; settings: 7 days after treatment
Method: (§2) T1/T2 transgenic plants of Brassica napus containing cellulose synthase sequences or mutated gene variants thereof are tested for improved tolerance to herbicides in greenhouse studies with azine herbicides. For the pre-emergence treatment, the herbicides are applied directly after sowing by means of finely distributing nozzles. The containers are irrigated gently to promote germination and growth and subsequently covered with transparent plastic hoods until the plants have rooted. This cover causes uniform germination of the test plants, unless this has been impaired by the herbicides. For post emergence treatment, the test plants are first grown to a height of 3 to 15 cm, depending on the plant habit, and only then treated with the herbicides. For this purpose, the test plants are either sown directly, and grown in the same containers or they are first grown separately and transplanted into the test containers a few days prior to treatment.
(§3) Herbicide injury evaluations are taken at 1, 2 and 3 weeks after treatment. Plant biomass reduction is rated on a scale of 0% to 100%, 0% being no reduction of biomass compared to untreated control, and 100% being complete absence of biomass.

[4] = tested on: Brassica napus expressing BnaA03g52020D (SEQ ID 15) variant G1015R; experiment: Greenhouse herbicide tolerance, post emergent; settings: 7 days after treatment
Method: as §2, §3

[5] = tested on: Brassica napus expressing BnaA03g55200D (SEQ ID 12) variant S1038F; experiment: Greenhouse herbicide tolerance, post emergent; settings: 7 days after treatment
Method: as §2, §3

[6] = tested on: Brassica napus expressing BnaA03g55200D (SEQ ID 12) variant S1041L; experiment: Greenhouse herbicide tolerance, post emergent; settings: 7 days after treatment
Method: as §2, §3

Brassica napus wildtype = experiment: Greenhouse herbicide tolerance, post emergent; settings: 7 days after treatment
Method: as §2, §3

[7] = tested on: Arabidopsis thaliana expressing AtCesA1_G1009D_G1013R (SEQ ID 1); experiment: 48-well plate growth inhibition, T2 seeds, tolerance factor; settings: based on IC50 values of growth inhibition, seven to ten days after seeding
Method: (§4) Transgenic Arabidopsis thaliana plants (T2) are assayed for improved tolerance to azine herbicides like e. g. 6-cyclopentyl-N4-(2,3,4,5,6-pentafluorophenyl)-1,3,5-triazine-2,4-diamine in 48-well plates. Therefore, T2 seeds are surface sterilized by stirring for 5 min in ethanol+water (70+30 by volume), rinsing one time with ethanol+water (70+30 by volume) and two times with sterile, deionized water. The seeds are resuspended in 0.1% agar dissolved in water (w/v) Four to five seeds per well are plated on solid nutrient medium consisting of half-strength murashige skoog nutrient solution, pH 5.8 (Murashige and Skoog (1962) Physiologia Plantarum 15: 473-497). Compounds are dissolved in dimethylsulfoxid (DMSO) and added to the medium prior solidification (final DMSO concentration 0.1%). Multi well plates are incubated in a growth chamber at 22° C., 75% relative humidity and 110 μmol Phot*m^−2*s^−1 with 14:10 h light:dark photoperiod. Growth inhibition is evaluated seven to ten days after seeding in comparison to wild type plants. Tolerance factors are calculated based on IC50 values of growth inhibition of transformed versus non-transformed Arabidopsis plants.

[8] = tested on: Arabidopsis thaliana expressing AtCesA1_P1010L_G1013R (SEQ ID 1); experiment: as above; settings: based on IC50 values of growth inhibition, seven to ten days after seeding
Method: as §4

[9] = tested on: Arabidopsis thaliana expressing AtCesA1_wt (SEQ ID 1); experiment: as above; settings: based on IC50 values of growth inhibition, seven to ten days after seeding
Method: as §4

[10] = tested on: Arabidopsis thaliana expressing AtCesA3_S983F_S1037F (SEQ ID 3); experiment: as above; settings: based on IC50 values of growth inhibition, seven to ten days after seeding
Method: as §4

[11] = tested on: Arabidopsis thaliana expressing AtCesA3_S983F_S1040L (SEQ ID 3); experiment: as above; settings: based on IC50 values of growth inhibition, seven to ten days after seeding
Method: as §4

[12] = tested on: Arabidopsis thaliana expressing AtCesA3_wt (SEQ ID 3); experiment: as above; settings: based on IC50 values of growth inhibition, seven to ten days after seeding
Method: as §4

[13] = BnaAnng01240D S1038F event 1, 5*10^-8M
[14] = BnaAnng01240D S1038F event 1, 10^-6M
[15] = BnaAnng01240D S1038F event 1, 10^-7M
[16] = BnaAnng01240D S1038F event 1, 10^-8M
[17] = BnaAnng01240D S1041L event 1, 5*10^-8M
[18] = BnaAnng01240D S1041L event 1, 10^-6M
[19] = BnaAnng01240D S1041L event 1, 10^-7M
[20] = BnaAnng01240D S1041L event 1, 10^-8M

## Nc1nc(Nc2c(F)c(F)c(F)c(F)c2F)nc(C2CCCC2)n1 [6-cyclopentyl-N4-(2,3,4,5,6-pentafluorophenyl)-1,3,5-triazine-2,4-diamine]
[1]; [13]
  average phytotox value: 50%
[1]; [14]
  average phytotox value: 80%
[1]; [15]
  average phytotox value: 60%
[1]; [16]
  average phytotox value: 0%
[1]; BnaAnng01240D S1038F event 1, 10^-9M
  average phytotox value: 0%
[1]; BnaAnng01240D S1038F event 2, 5*10^-8M
  average phytotox value: 65%
[1]; BnaAnng01240D S1038F event 2, 10^-6M
  average phytotox value: 80%
[1]; BnaAnng01240D S1038F event 2, 10^-7M
  average phytotox value: 65%
[1]; BnaAnng01240D S1038F event 2, 10^-8M
  average phytotox value: 0%
[1]; BnaAnng01240D S1038F event 2, 10^-9M
  average phytotox value: 0%
[2]; [17]
  average phytotox value: 55%
[2]; [18]
  average phytotox value: 80%
[2]; [19]
  average phytotox value: 70%
[2]; [20]
  average phytotox value: 0%
[2]; BnaAnng01240D S1041L event 1, 10^-9M
  average phytotox value: 0%
[2]; BnaAnng01240D S1041L event 2, 5*10^-8M
  average phytotox value: 65%
[2]; BnaAnng01240D S1041L event 2, 10^-6M
  average phytotox value: 80%
[2]; BnaAnng01240D S1041L event 2, 10^-7M
  average phytotox value: 80%
[2]; BnaAnng01240D S1041L event 2, 10^-8M
  average phytotox value: 0%
[2]; BnaAnng01240D S1041L event 2, 10^-9M
  average phytotox value: 0%
[3]; 3.9 g/ha
  average phytotox value: 17%
[3]; 7.8 g/ha
  average phytotox value: 35%
[3]; 15.6 g/ha
  average phytotox value: 35%
[3]; 31.25 g/ha
  average phytotox value: 60%
[4]; 1st listed line, 3.9 g/ha
  average phytotox value: 18%
[4]; 1st listed line, 7.8 g/ha
  average phytotox value: 43%
[4]; 1st listed line, 15.6 g/ha
  average phytotox value: 41%
[4]; 1st listed line, 31.25 g/ha
  average phytotox value: 53%
[4]; 2nd listed line, 3.9 g/ha
  average phytotox value: 37%
[4]; 2nd listed line, 7.8 g/ha
  average phytotox value: 61%
[4]; 2nd listed line, 15.6 g/ha
  average phytotox value: 45%
[4]; 2nd listed line, 31.25 g/ha
  average phytotox value: 67%
[5]; 1st listed line, 3.9 g/ha
  average phytotox value: 23%
[5]; 1st listed line, 7.8 g/ha
  average phytotox value: 25%
[5]; 1st listed line, 15.6 g/ha
  average phytotox value: 29%
[5]; 1st listed line, 31.25 g/ha
  average phytotox value: 34%
[5]; 2nd listed line, 3.9 g/ha
  average phytotox value: 7%
[5]; 2nd listed line, 7.8 g/ha
  average phytotox value: 19%
[5]; 2nd listed line, 15.6 g/ha
  average phytotox value: 20%
[5]; 2nd listed line, 31.25 g/ha
  average phytotox value: 44%
[6]; 3.9 g/ha
  average phytotox value: 15%
[6]; 7.8 g/ha
  average phytotox value: 27%
[6]; 15.6 g/ha
  average phytotox value: 42%
[6]; 31.25 g/ha
  average phytotox value: 51%
Brassica napus wildtype; 3.9 g/ha
  average phytotox value: 23%
Brassica napus wildtype; 7.8 g/ha
  average phytotox value: 34%
Brassica napus wildtype; 15.6 g/ha
  average phytotox value: 59%
Brassica napus wildtype; 31.25 g/ha
  average phytotox value: 73%
[7]
  Relative tolerance rate as compared to non-transgenic Arabidopsis plants (non-transgenic = 1.0): 1
[8]
  Relative tolerance rate as compared to non-transgenic Arabidopsis plants (non-transgenic = 1.0): 30
[9]
  Relative tolerance rate as compared to non-transgenic Arabidopsis plants (non-transgenic = 1.0): 1
[10]
  Relative tolerance rate as compared to non-transgenic Arabidopsis plants (non-transgenic = 1.0): 10
[11]
  Relative tolerance rate as compared to non-transgenic Arabidopsis plants (non-transgenic = 1.0): 10
[12]
  Relative tolerance rate as compared to non-transgenic Arabidopsis plants (non-transgenic = 1.0): 1

## Nc1nc(Nc2nc(F)c(F)c(Cl)c2F)nc(C2(F)CCCC2)n1 [N2-(4-chloro-3,5,6-trifluoro-2-pyridyl)-6-(1-fluorocyclopentyl)-1,3,5-triazine-2,4-diamine]
[1]; BnaAnng01240D S1038F event 1, 5*10-7
  average phytotox value: 30%
[1]; [13]
  average phytotox value: 5%
[1]; [14]
  average phytotox value: 85%
[1]; [15]
  average phytotox value: 30%
[1]; [16]
  average phytotox value: 0%
[2]; BnaAnng01240D S1041L event 1, 5*10-7
  average phytotox value: 90%
[2]; [17]
  average phytotox value: 0%
[2]; [18]
  average phytotox value: 90%
[2]; [19]
  average phytotox value: 10%
[2]; [20]
  average phytotox value: 0%
[3]; 7.8 g/ha
  average phytotox value: 34%
[3]; 15.6 g/ha
  average phytotox value: 61%
[3]; 31.25 g/ha
  average phytotox value: 65%
[3]; 62.5 g/ha
  average phytotox value: 72%
[4]; 1st listed line, 7.8 g/ha
  average phytotox value: 34%
[4]; 1st listed line, 15.6 g/ha
  average phytotox value: 43%
[4]; 1st listed line, 31.25 g/ha
  average phytotox value: 50%
[4]; 1st listed line, 62.5 g/ha
  average phytotox value: 73%
[4]; 2nd listed line, 7.8 g/ha
  average phytotox value: 16%
[4]; 2nd listed line, 15.6 g/ha
  average phytotox value: 41%
[4]; 2nd listed line, 31.25 g/ha
  average phytotox value: 62%
[4]; 2nd listed line, 62.5 g/ha
  average phytotox value: 72%
[5]; 1st listed line, 7.8 g/ha
  average phytotox value: 8%
[5]; 1st listed line, 15.6 g/ha
  average phytotox value: 6%
[5]; 1st listed line, 31.25 g/ha
  average phytotox value: 47%
[5]; 1st listed line, 62.5 g/ha
  average phytotox value: 54%
[5]; 2nd listed line, 7.8 g/ha
  average phytotox value: 21%
[5]; 2nd listed line, 15.6 g/ha
  average phytotox value: 51%
[5]; 2nd listed line, 31.25 g/ha
  average phytotox value: 47%
[5]; 2nd listed line, 62.5 g/ha
  average phytotox value: 68%
[6]; 7.8 g/ha
  average phytotox value: 24%
[6]; 15.6 g/ha
  average phytotox value: 53%
[6]; 31.25 g/ha
  average phytotox value: 62%
[6]; 62.5 g/ha
  average phytotox value: 76%
Brassica napus wildtype; 7.8 g/ha
  average phytotox value: 42%
Brassica napus wildtype; 15.6 g/ha
  average phytotox value: 56%
Brassica napus wildtype; 31.25 g/ha
  average phytotox value: 70%
Brassica napus wildtype; 62.5 g/ha
  average phytotox value: 83%
[7]
  Relative tolerance rate as compared to non-transgenic Arabidopsis plants (non-transgenic = 1.0): 1
[8]
  Relative tolerance rate as compared to non-transgenic Arabidopsis plants (non-transgenic = 1.0): 1
[9]
  Relative tolerance rate as compared to non-transgenic Arabidopsis plants (non-transgenic = 1.0): 2
[10]
  Relative tolerance rate as compared to non-transgenic Arabidopsis plants (non-transgenic = 1.0): 5
[11]
  Relative tolerance rate as compared to non-transgenic Arabidopsis plants (non-transgenic = 1.0): 4
[12]
  Relative tolerance rate as compared to non-transgenic Arabidopsis plants (non-transgenic = 1.0): 1
